In patent US9714275B2, “Cancer antigen” (Cadila Pharmaceuticals Ltd., priority 2011, dated 2017):

Experiments:
Assay type in all cases: cell-based
Mia-Pa-Ca-2 cells = experiment: Protein profile (SDS-PAGE) of treated pancreatic cancer cells; conditions: Mw 1:500, cisplatin 5 μg/ml, paclitaxel 150 μg/ml, gemcitabine 800 nm; serum free media, 37° C.; vs untreated cell profile
Procedure: (§1) The Mia-Pa-Ca-2 cells were treated with Mw Cells in ratio 1:500, cisplatin at 5 μg/ml, paclitaxel at 150 μg/ml, and gemcitabine at 800 nm. The treatment was carried out in serum free media at 37° C. The cells were lysed and SDS-PAGE was run to obtain proteomic profile. Thus obtained profiles were overlapped with the untreated cell protein profile. The protein profile was noticed for each treatment. The differently expressed protein was identified at 45 KDa.
45 KDa protein is commonly over expressed protein when pancreatic cancer cells are treated with Mw, cisplatin, paclitaxel, gemcitabine, or combination there of.

B16 melanoma cells = experiment: Protein profile (SDS-PAGE) of treated melanoma cells; conditions: cisplatin 5 μg/ml, paclitaxel 150 μg/ml, gemcitabine 800 nm; serum free media, 37° C.; vs untreated cell profile
Procedure: as §1, with “B16 melanoma” for “Mia-Pa-Ca-2”, “with,” for “with Mw Cells in ratio 1:500,”, “μg/ml,and” for “μg/ml, and”, “36” for “45”
36 KDa protein is commonly expressed protein when melanoma cells are treated with, cisplatin, paclitaxel, gemcitabine, or combination there of.

[1] = tested on: Lung cancer cell lines (A549 and L132); experiment: Protein profile (SDS PAGE and Western blot) of Mw treated lung cancer cell lines; conditions: Mw/cells 1:100, 4 hours at 37° C.; vs untreated cell profile
Procedure: Different Lung cancer cell lines (A549 and L132) were treated with Mw/cells in the ratio of 1:100. Each treatment group contained 4×10E6 cells. Cells treated with Mw were incubated for 4 hours at 37° C. After treatment, cells were pelleted and supernatant was discarded. Cells were then resuspended in DPBS (400 μl). Cells were then sonicated for 15 minutes with pulse of 10 seconds on and 20 seconds off. The lysate obtained was estimated for the protein content using BCA Protein assay and protein was normalized to load 30 μg protein in each well. This was followed by 12% reducing SDS PAGE and Western blot analysis to obtain protein profile and humoral response. Thus obtained profile was compared with untreated cell protein profile.

For N.N.[Cl][Pt][Cl] [cisplatin], the “commonly over expressed protein after treatment (SDS-PAGE band)” value (shortened to “commonly over expressed protein”) (Mia-Pa-Ca-2 cells) was 45 KDa and the “commonly expressed protein after treatment (SDS-PAGE band)” value (“commonly expressed protein” below) (B16 melanoma cells) was 36 KDa.

Nc1ccn([C@@H]2O[C@H](CO)[C@@H](O)C2(F)F)c(=O)n1 [gemcitabine] was tested, and the “commonly over expressed protein” value (Mia-Pa-Ca-2 cells) was 45 KDa and the “commonly expressed protein” value (B16 melanoma cells) was 36 KDa.

With CC(=O)O[C@H]1C(=O)[C@@]2(C)[C@H]([C@H](OC(=O)c3ccccc3)[C@]3(O)C[C@H](OC(=O)[C@H](O)[C@@H](NC(=O)c4ccccc4)c4ccccc4)C(C)=C1C3(C)C)[C@]1(OC(C)=O)CO[C@@H]1C[C@@H]2O [paclitaxel] the “commonly over expressed protein” value (Mia-Pa-Ca-2 cells) was 45 KDa and the “commonly expressed protein” value (B16 melanoma cells) was 36 KDa.

With Mycobacterium w [Mw] the “commonly over expressed protein” value (Mia-Pa-Ca-2 cells) was 45 KDa and the “common protein in both treated cell lines” value [1] was 43 KDa.
